Assay results from US10220091B2, “Combination treatments with sonic hedgehog inhibitors” (The General Hospital Corporation, priority 2013, dated 2019).

Experiments:
[1] = tested on: Colo38, Colo38R, M21, M21R and TPF-10-741 cells; assay: MTT dose titration of PDGFRα-I; assay type: cell-based; details: Homo sapiens; dose titration experiment, MTT assay, the 5 cell lines; read-out: IC50 doses
Method: MTT assay was carried out as reported elsewhere^2. […] All experiments were performed three independent times in triplicates.
A dose titration experiment established the dose of PDGFRα-I to be combined with vemurafenib in the 5 cell lines.

[2] = tested on: melanoma cells; assay: Overcoming BRAF-I resistance mediated by PDGFRβ upregulation; assay type: cell-based; details: as reported and as found by the applicant
[3] = tested on: p-ERK; assay: Western blot of cell lysates, p-ERK; details: Colo38R, M21R and TPF-10-741 cells; vemurafenib 1 μM, sunitinib 3 μM, imatinib 20 μM
Method: A. Following an incubation at indicated time points at 37° C. cells were harvested and lysed. Cell lysates were analyzed by western blot with the indicated mAbs. β-actin-was used as a loading control. B. Following a 48 h incubation at 37° C. cells were harvested and lysed. Cell lysates were analyzed by western blot with the indicated mAbs. β-actin or Calnexin were used as a loading control. The results presented are representative of the results obtained in three independent experiments.
A. M21R and TPF-10-741 cells were transduced with PDGFRα-specific shRNA (#4) or with GFP-shRNA, used as a control, lentiviral particles. […] Following a three day incubation at 37° C. cells were harvested and lysed. Cell lysates were analyzed by western blot with the indicated mAbs. β-actin was used as a loading control. […] Cell proliferation was determined by MTT assay following a three day incubation at 37° C. Percentage of cell proliferation was calculated as the ratio of treated cells to untreated GFP-shRNA transduced cells. Data are expressed as mean±SD of the results obtained in three independent experiments. *** indicates P<0.01.
Following an incubation at indicated time points at 37° C. cells were harvested and lysed. Cell lysates were analyzed by western blot with the indicated mAbs. β-actin was used as a loading control. […]

Row | Compound | IC50 [1] | further results
1 | CC1(COc2ccc3c(c2)ncn3-c2ccc3cccc(N4CCC(N)CC4)c3n2)COC1 [crenolanib] | 1000 nM | –
2 | CCN(CC)CCNC(=O)c1c(C)[nH]c(/C=C2\C(=O)Nc3ccc(F)cc32)c1C [sunitinib] | 2000 nM | –
3 | Cc1ccc(NC(=O)c2ccc(CN3CCN(C)CC3)cc2)cc1Nc1nccc(-c2cccnc2)n1 [imatinib] | – | ability to overcome BRAF-I resistance mediated by PDGFRβ upregulation [2]: not able to overcome
4 | CCCS(=O)(=O)Nc1ccc(F)c(C(=O)c2c[nH]c3ncc(-c4ccc(Cl)cc4)cc23)c1F [vemurafenib] | – | p-ERK levels [3]: not inhibited
